Earlier results, collected in patent US20030039681A1, “Rapid growth dairy heifers having reduced mammary fat content” (priority 2001, published 2003).

Assays:
[1] = tested on: adipose tissue; conditions: growing pigs, CLA-supplement fed
[2] = tested on: lactating dairy cattle; conditions: abomasal infusion
[3] = tested on: preadipocytes

Q: What does the source list for conjugated linoleic acid [CLA]?
A: carcass lipid content [1]: lower; lipogenesis in adipose tissue [1]: decreases; milk fat content [2]: decreases; proliferation of preadipocytes [3]: inhibits
